Experimental data reported in article PMC10765884, “MC180295 is a highly potent and selective CDK9 inhibitor with preclinical in vitro and in vivo efficacy in cancer” (Clinical Epigenetics, 2024).
≈ marks a conversion by molar mass, not a printed value. Where two headings read alike, the source gives them in different places.

Experiments:
[1] = Liver microsome stability assay; format: in vitro ADME, mouse; conditions: pH 7.4; for remaining at 1 h, 1 µM: male, CD-1, pooled liver microsomes, Mouse liver microsomes, without NADPH, 60 min, read-out: Stability minus NADPH % Remaining @ 60 min; for half-life at 1 µM: pooled liver microsomes, Mouse (CD-1, male) liver microsomes
Description: Assays were conducted in 96-deep well polypropylene plates. In duplicate, test compounds (1 µM) were incubated in 0.5 mL of 100 mM potassium phosphate buffer (pH 7.4), with 0.5 mg/ml pooled liver microsomes (Life Technologies: CD-1 male mice # MSMCPL; SD male rat # RTMCPL; mixed gender human # HMMCPL. BD Genetest male beagle dog; # 452,601; male marmoset # 452,340), 2 mM tetra sodium NADPH, and 3 mM MgCl2, for 60 min in a Labnet® Vortemp incubator at 37 °C, with gentle shaking. At five time points, 75 µL of reaction mixtures were transferred on ice to a 96-shallow well stop plate containing 225 µL acetonitrile with 0.1 µM propafenone. […] Standard curves for test compounds were generated using 5 concentrations (in duplicate) that were processed as above but with no incubation time. Stop plates were centrifuged at 2000xg for 10 min in a Sorvall ST 16 centrifuge, and 170 µL of the supernatants transferred to a Waters® Aquity UPLC (Ultra Performance Liquid Chromatography) 700 µL 96-well sample plate with cap mat. A Waters® Aquity UPLC BEH C18 1.7 µM, 2.1 × 50 mm column, at 40 °C, was used to fractionate 5 µL samples, using a 3 min linear 5 to 95% acetonitrile gradient in 0.1% formic acid with a 0.75 mL/min flow rate. In tandem with UPLC, compound concentrations were analyzed using a Waters® TQ MS mass spectrometer in electrospray-positive mode (source temperature 150 °C; desolvation temperature 450 °C; desolvation flow rate of 900 L/hr). Cone voltages, collision energies, and quantitation were optimized and determined using Waters® QuanOptimize software, with propafenone as an internal standard. MC180379:CV 34; CE 34; mrm 359.15 > 114.91; MC180390 CV 34; CE 28; mrm 359.15 > 114.92. GraphPad® Prism v 5.04 was used for nonlinear fitting of time course data to generate t1/2 and CLint (intrinsic clearance) values.

Kinetic solubility = format: physicochemical; conditions: Dulbecco's PBS, aqueous buffer, kinetic from dmso stock; PBS (pH 7.4), Free Base
Description: The kinetic solubility of test compounds was determined by adapting Millipore® application note protocol AN1730EN00. Liquid handling was performed using PerkinElmer® Verispan and MDT workstations. In triplicate, 4 µL of 10 mM test compounds in DMSO were added to 196 µL of buffer (Dulbecco’s’ PBS or water). The 200 µM compound solutions, in 2% DMSO, were incubated with gentle shaking for 90 min at RT before vacuum filtration in 96-well polypropylene collection plates, using a Millipore® filtration manifold. 160 µL of filtrate was transferred to a 96-well UV Star analysis plate (Greiner Bio-One® plate # 655,801) containing 40 µL acetonitrile. Standard curves were generated by adding 4 µL of 50 × of five concentrations of test compounds, in DMSO, to 40 µL acetonitrile in UV Star plates, followed by 156 µL buffer. Absorbances at […] were measured using a Molecular Devices® Spectramax Plus microplate reader with Softmax Pro v. 5.4.5 software. Absorbance readings were summed to generate the signal. Test sample concentrations were interpolated from linear standard curves using GraphPad® Prism v 5.04.

Pharmacokinetics in rats = format: in vivo; conditions: rat, plasma, iv, 1 mg/kg; for AUC(0-t): read-out: AUC24hr; for Vd: read-out: Vss

## Nc1nc(N[C@H]2C[C@@H]3CC[C@H]2C3)sc1C(=O)c1ccccc1[N+](=O)[O-] [MC180380]
[1]
  remaining at 1 h, 1 µM: 88%
  half-life at 1 µM: 7.1 min
Kinetic solubility
  solubility at 90 min: 52.6 µM (≈ 18.9 µg/mL)

## Nc1nc(N[C@@H]2C[C@H]3CC[C@@H]2C3)sc1C(=O)c1ccccc1[N+](=O)[O-] [MC180379]
[1]
  remaining at 1 h, 1 µM: 86%
  half-life at 1 µM: 3.2 min
Kinetic solubility
  solubility at 90 min: 53.5 µM (≈ 19.2 µg/mL)

## Nc1nc(N[C@H]2C[C@@H]3CC[C@H]2C3)sc1C(=O)c1ccccc1[N+](=O)[O-] (relative stereo) [MC180295]
Pharmacokinetics in rats; given IV to rats, read-out: half-life (converted)
  half-life: ~14 h
Pharmacokinetics in rats; rats, IV 1 mg/kg, Mean
  Cmax: 0.635 µg/mL
  clearance: 5.2 mL/min
  AUC(0-t): 0.679 µg·h/mL
  Vd: 4.46 L
Pharmacokinetics in rats; rats, IV 1 mg/kg, Mean, read-out: T1/2 (converted)
  half-life: 14 h
Pharmacokinetics in rats; rats, IV 1 mg/kg, Rat -1
  Cmax: 0.385 µg/mL
  clearance: 6.4 mL/min
  AUC(0-t): 0.47 µg·h/mL
  Vd: 6.87 L
Pharmacokinetics in rats; rats, IV 1 mg/kg, Rat -1, read-out: T1/2 (converted)
  half-life: 17.9 h
Pharmacokinetics in rats; rats, IV 1 mg/kg, Rat -2
  Cmax: 0.568 µg/mL
  clearance: 5.1 mL/min
  AUC(0-t): 0.687 µg·h/mL
  Vd: 3.74 L
Pharmacokinetics in rats; rats, IV 1 mg/kg, Rat -2, read-out: T1/2 (converted)
  half-life: 9.98 h
Pharmacokinetics in rats; rats, IV 1 mg/kg, Rat -3
  Cmax: 0.951 µg/mL
  clearance: 4.1 mL/min
  AUC(0-t): 0.879 µg·h/mL
  Vd: 2.76 L
Pharmacokinetics in rats; rats, IV 1 mg/kg, Rat -3, read-out: T1/2 (converted)
  half-life: 14 h
